Reference: US7572799B2, “Pyrazolo[4,3-d]pyrimidines as Phosphodiesterase Inhibitors” (Pfizer Inc, priority 2003, dated 2009)
Like-named read-outs stand apart in the source and are kept apart here.

Biological target: PDE-5 (UniProt O76074)
Experiment: In vitro PDE inhibitory activity against PDE5 (batch method or scintillation proximity assay)
Assay type: biochemical, human
Details: representative compounds
Text: The compounds of the invention are inhibitors of cyclic guanylate monophosphate (cGMP)-specific phosphodiesterase type 5 (PDE-5 inhibitors).
The required PDE enzymes can be isolated from a variety of sources, including human corpus cavernosum, human and rabbit platelets, human cardiac ventricle, human skeletal muscle and bovine retina, essentially by a modification of the method of Thompson, W J et al.; Biochemistry 18(23), 5228-5237, 1979, as described by Ballard S A et al.; J. Urology 159(6), 2164-2171, 1998. In particular, cGMP-specific PDE5 and cGMP-inhibited cAMP PDE3 can be obtained from human corpus cavernosum tissue, human platelets or rabbit platelets; cGMP-stimulated PDE2 was obtained from human corpus cavernosum; calcium/calmodulin (Ca/CAM)-dependent PDE1 from human cardiac ventricle; cAMP-specific PDE4 from human skeletal muscle; and photoreceptor PDE6 from bovine retina. Phosphodiesterases 7-11 can be generated from full length human recombinant clones transfected into SF9 cells.
Assays can be performed either using a modification of the “batch”method of Thompson W J and Appleman M M; Biochemistry 10(2), 311-316, 1971, essentially as described by Ballard S A et al.; J. Urology 159(6), 2164-2171, 1998, or using a scintillation proximity assay for the direct detection of [^3H]-labelled AMP/GMP using a modification of the protocol described by Amersham plc under product code TRKQ7090/7100. In summary, for the scintillation proximity assay the effect of PDE inhibitors was investigated by assaying a fixed amount of enzyme in the presence of varying inhibitor concentrations and low substrate, (cGMP or cAMP in a 3:1 ratio unlabelled to [^3H]-labeled at a concentration of ˜⅓ Km, or less) such that IC50≅Ki. The final assay volume was made up to 100 μl with assay buffer [20 mM Tris-HCl pH 7.4, 5 mM MgCl2, 1 mg/ml bovine serum albumin]. Reactions were initiated with enzyme, incubated for 30-60 min at 30° C. to give <30% substrate turnover and terminated with 50 μl yttrium silicate SPA beads (containing 3 mM of the respective unlabelled cyclic nucleotide for PDEs 9 and 11).

SMILES	IC50 (read-out: IC50) [nM]	IC50 [nM]
Cc1ccnc(Nc2nc(N(C)C(C)C)nc3c(C(=O)NS(C)(=O)=O)nn(CCOCC(F)F)c23)c1 [Example 181]	1.29	–
CCOCCn1nc(C(=O)O)c2nc(N3CC[C@@H](OC)C3)nc(Nc3cc(C)ccn3)c21 [Example 13]	1.46	–
COC(C)CCn1nc(C(=O)O)c2nc(N(C)C(C)C)nc(Nc3cc(C)ccn3)c21 (stereo not shown) [Example 107]	–	0.307
CCN(C)c1nc(Nc2cc(C)ccn2)c2c(n1)c(C(=O)O)nn2CC1CCOCC1 [Example 58]	–	100
CCOCCn1nc(C(=O)O)c2nc(N(C)C(C)C)nc(Nc3ccccn3)c21 [Example 105]	0.741	–
CCOCCn1nc(C(=O)O)c2nc(N(C)C(C)C)nc(Nc3cccc(OC)n3)c21 [Example 84]	2.37	–
CCOCCn1nc(C(=O)OCC)c2nc(N(C)C(C)C)nc(Nc3cc(C)ccn3)c21 [Example 9]	0.075	–
CCOCCn1nc(-c2nc(=O)o[nH]2)c2nc(N(CC)CC)nc(Nc3ccc(F)c(C)c3)c21 [Example 78]	0.24	–
CCOCCn1nc(C(=O)OC)c2nc(N(CC)CC)nc(Nc3ccc(F)c(C)c3)c21 [Example 117, Methyl 5-(diethylamino)-1-(2-ethoxyethyl)-7-[(4-fluoro-3-methylphenyl)amino]-1H-pyrazolo[4,3-d]pyrimidine-3-carboxylate]	0.025	–
CCNc1nc(Nc2cc(C)ccn2)c2c(n1)c(C(=O)O)nn2CCOC(C)C [Example 63]	4.58	–
CCOCCn1nc(C(=O)OC)c2nc(N(C)CC)nc(Nc3ccc(F)c(C)c3)c21 [Example 116, Methyl 1-(2-ethoxyethyl)-5-[ethyl(methyl)amino]-7-[(4-fluoro-3-methylphenyl)amino]-1H-pyrazolo[4,3-d]pyrimidine-3-carboxylate]	0.032	–
CCN(CC)c1nc(Nc2cc(C)ccn2)c2c(n1)c(C(=O)O)nn2C[C@@H](C)OC [Example 66]	13.5	–
CCOCCn1nc(-c2nc(=O)o[nH]2)c2nc(N(C)CC)nc(Nc3cc(C)ccn3)c21 [Example 76]	0.465	–
CCOCCn1nc(C(=O)O)c2nc(N(C)CC)nc(Nc3ccc(F)c(C)c3)c21 [Example 87]	0.087	–
CCOCCn1nc(-c2nc(=O)o[nH]2)c2nc(N(C)CC)nc(Nc3ccc(F)c(C)c3)c21 [Example 77]	0.162	–
CCOCCn1nc(C(=O)O)c2nc(N3CCCC3C)nc(Nc3cc(C)ccn3)c21 (stereo not shown) [Example 53]	0.797	–
CCOCCn1nc(C(=O)O)c2nc(N(C)C(C)C)nc(NC3CCC3)c21 [Example 32]	–	100
Cc1ccnc(Nc2nc(N(C)C(C)C)nc3c(C(=O)O)nn(CCOC(C)C)c23)c1 [Example 111, 1-(2-Isopropoxyethyl)-5-(N-isopropyl-N-methylamino)-7-(4-methylpyridin-2-ylamino)-1H-pyrazolo[4,3-d]pyrimidine-3-carboxylic acid]	0.502	–
CCOCCn1nc(C(=O)O)c2nc(N(C)C(C)C)nc(Nc3cc(C)cc(C)n3)c21 [Example 26]	1.64	–
Cc1cccc(Nc2nc(N(C)C(C)C)nc3c(C(=O)O)nn(CCOCC(F)(F)F)c23)c1 [Example 138]	0.065	–
Cc1ccnc(Nc2nc(N(C)C)nc3c(C(=O)O)nn(CCOC(C)C)c23)c1 [Example 61]	13.1	–
CCOCCn1nc(C(=O)O)c2nc(N(C)CC)nc(Nc3ccnc(OC)n3)c21 [Example 70]	0.451	–
CCOCCn1nc(C(=O)NS(C)(=O)=O)c2nc(N(C)CC)nc(Nc3cccc(C)n3)c21 [Example 149]	14.4	–
CCOCCn1nc(C(=O)O)c2nc(N(C)C(C)C)nc(Nc3cc(F)cc(F)c3)c21 [Example 91]	5.06	–
Cc1ccnc(Nc2nc(N3CCCC3C)nc3c(C(=O)O)nn(CCOCC(F)(F)F)c23)c1 (stereo not shown) [Example 129, 7-[(4-Methylpyridin-2-yl)amino]-5-(2-methylpyrrolidin-1-yl)-1-[2-(2,2,2-trifluoroethoxy)ethyl]-1H-pyrazolo[4,3-d]pyrimidine-3-carboxylic acid]	7.78	–
CCOCCn1nc(C(=O)OCCN(C)C)c2nc(N(C)C(C)C)nc(Nc3cc(C)ccn3)c21 [Example 147, 2-(Dimethylamino)ethyl 1-(2-ethoxyethyl)-5-[isopropyl(methyl)amino]-7-[(4-methylpyridin-2-yl)amino]-1H-pyrazolo[4,3-d]pyrimidine-3-carboxylate]	0.141	–

SMILES	IC50 (read-out: IC50) [nM]	IC50 [nM]
CCOCCn1nc(C(=O)O)c2nc(N(C)C(C)C)nc(Nc3ccccc3)c21 [Example 95]	9.11	–
CCOCCn1nc(C(=O)O)c2nc(N(C)C(C)C)nc(Nc3cccc(F)c3F)c21 [Example 93]	23.2	–
CCN(C)c1nc(Nc2cc(C)ccn2)c2c(n1)c(C(=O)O)nn2C[C@@H](C)OC [Example 65]	25	–
CCOCCn1nc(-c2nc(=O)o[nH]2)c2nc(N(C)C(C)C)nc(Nc3cc(C)ccn3)c21 [Example 75, 3-[1-(2-Ethoxyethyl)-5-(N-isopropyl-N-methylamino)-7-(4-methylpyridin-2-ylamino)-1H-pyrazolo[4,3-d]pyrimidin-3-yl]-2H-1,2,4-oxadiazol-5-one]	0.371	–
CCOCCn1nc(C(=O)O)c2nc(N(C)C)nc(Nc3cc(C)ccc3F)c21 [Example 100]	3.48	–
Cc1ccnc(Nc2nc(N(C)C3CCC3)nc3c(C(=O)O)nn(CCOCC(F)(F)F)c23)c1 [Example 130, 5-[Cyclobutyl(methyl)amino]-7-[(4-methylpyridin-2-yl)amino]-1-[2-(2,2,2-trifluoroethoxy)ethyl]-1H-pyrazolo[4,3-d]pyrimidine-3-carboxylic acid]	19.5	–
CCOCCn1nc(C(=O)O)c2nc(N(C)C(C)C)nc(Nc3ccccc3F)c21 [Example 104]	9.69	–
CCOCCn1nc(C(=O)O)c2nc(N(C)C)nc(Nc3ccc(C)cn3)c21 [Example 24]	53.9	–
CCOCCn1nc(C(=O)O)c2nc(N(C)C(C)C)nc(NC3CC3)c21 [Example 34]	–	100
Cc1ccnc(Nc2nc(N(C)C(C)C)nc3c(C(=O)O)nn(CCOCC4CC4)c23)c1 [Example 108]	18.3	–
CCOCCn1nc(C(=O)O)c2nc(N(C)C(C)CC)nc(Nc3cc(C)ccn3)c21 (stereo not shown) [Example 50]	1.66	–
CCOCCn1nc(C(=O)O)c2nc(N[C@H](C)CC)nc(Nc3cc(C)ccn3)c21 [Example 56]	9.11	–
Cc1ccnc(Nc2nc(N(C)C(C)C)nc3c(C(=O)NS(C)(=O)=O)nn(CCOCC(F)(F)F)c23)c1 [Example 179, 5-[Isopropyl(methyl)amino]-7-[(4-methylpyridin-2-yl)amino]-N-(methylsulfonyl)-1-[2-(2,2,2-trifluoroethoxy)ethyl]-1H-pyrazolo[4,3-d]pyrimidine-3-carboxamide]	0.914	–
CCOCCn1nc(C(=O)NS(C)(=O)=O)c2nc(N(C)C(C)C)nc(Nc3cc(C)ccn3)c21 [Example 113, N-[1-(2-Ethoxyethyl)-5-(N-isopropyl-N-methylamino)-7-(4-methylpyridin-2-ylamino)-1H-pyrazolo[4,3-d]pyrimidine-3-carbonyl]methanesulfonamide]	0.27	–
CCOCCn1nc(C(=O)O)c2nc(N(C)CC)nc(Nc3cccc(CC)n3)c21 [Example 97]	9.74	–
CCOCCn1nc(C(=O)O)c2nc(N(C)C(C)C)nc(NC3CCOCC3)c21 [Example 83]	27.8	–
CCN(C)c1nc(Nc2cc(C)ccn2)c2c(n1)c(C(=O)NS(C)(=O)=O)nn2CCOCCCF [Example 175]	0.57	–
CCOCCn1nc(C(=O)OCC)c2nc(N(C)CC)nc(Nc3cc(C)ccn3)c21 [Example 7, Ethyl 1-(2-ethoxyethyl)-5-(N-ethyl-N-methylamino)-7-(4-methylpyridin-2-ylamino)-1H pyrazolo[4,3-d]pyrimidine-3-carboxylate]	0.082	–
CCOCCn1nc(C(=O)O)c2nc(N(C)C3CCC3)nc(Nc3cc(C)ccn3)c21 [Example 51]	2.57	–
CCOCCn1nc(C(=O)O)c2nc(N(C)C(C)C)nc(Nc3cccc(C)c3)c21 [Example 94]	0.303	–
CCN(C)c1nc(Nc2cc(C)ccn2)c2c(n1)c(C(=O)O)nn2CCOC [Example 119]	11.5	–
CCOCCn1nc(C(=O)O)c2nc(N(C)CC)nc(Nc3cccc(C)c3)c21 [Example 118, 1-(2-Ethoxyethyl)-5-[ethyl(methyl)amino]-7-[(3-methylphenyl)amino]-1H-pyrazolo[4,3-d]pyrimidine-3-carboxylic acid]	1.72	–
CCOCCn1nc(C(=O)O)c2nc(N(C)C3CCC3)nc(N[C@@H]3CCOC3)c21 [Example 69]	–	100
CCOCCn1nc(C(=O)O)c2nc(N(C)CC)nc(Nc3ccc(C)c(C)c3)c21 [Example 103]	21.4	–
CCOCCn1nc(C(=O)NS(C)(=O)=O)c2nc(N(C)CC)nc(Nc3cc(C)ncn3)c21 [Example 157]	0.771	–
CCN(C)c1nc(Nc2cc(C)ccn2)c2c(n1)c(C(=O)O)nn2CC1CCCCO1 (stereo not shown) [Example 60]	–	8.02
